Reference: US10168342B2, “Lipid probes and uses thereof” (THE SCRIPPS RESEARCH INSTITUTE, priority 2015, dated 2019)

Assays:
[1] = system: NAEs, NATs, AA and 2-AG in Neuro2a cells; assay: Targeted LC-MS (MRM) analysis of lipids from Neuro2a cells; type: cell-based, mouse; conditions: for NAEs when co-treated with PF-7845 (1 μM) / AA levels: 10 μM; for AA levels / 2-AG levels / cellular concentrations of NAEs and NATs: Neuro2a cells; for 2-AG levels / cellular concentrations of NAEs and NATs: 10 μM (PF-7845 1 μM); for cellular concentrations of NAEs and NATs: 6 h
Protocol: Discovery metabolite profiling was performed as described by Saghatelian et al., “Assignment of endogenous substrates to enzymes by global metabolite profiling,” Biochemistry 43:14332-14339 (2004) with several modifications. […] The media from the cells was removed and cells were washed with DPBS (2×5.0 mL) before adding freshly prepared media solutions containing vehicle or compound. After incubating for 6 h at 37° C. and subsequent removal of the media, the cells were harvested by scrapping in cold DPBS (3 mL) and pelleted by centrifugation in glass vials. The pellets were washed once with cold DPBS (3 mL) and then cold […] (2:1) (3 mL) was added. After vortexing, the vials were centrifuged (3,000×g, 10 min, 4° C.) and the bottom (organic) layer was transferred to a new glass vial and concentrated under a stream of N2. Samples were stored at −80° C. until the day of analysis when they were reconstituted in Mobile Phase A (100 μL, see below).
Neuro2a cells were treated and lipids extracted as described above. A mixture of internal standards [AEA-d4 (10 pmol), 2-AG-d5 (100 pmol), AA-d8 (100 pmol), PEA-d4 (100 pmol), PDA (1.0 nmol)] was added to the organic phase prior to extracting cells. NAEs, MAGs, AA and NATs were analyzed similarly to previously described methods (Saghatelian et al., 2004). The following MS parameters were used to measure the indicated metabolites by MRM (precursor ion, product ion, collision energy, polarity): NAE 20:4 (AEA) (348, 62, 12, positive), AEA-d4 (352, 66, 12, positive), NAE 16:0 (PEA) (300, 62, 12, positive), PEA-d4 (304, 62, 12, positive), NAE 18:0 (328, 62, 12, positive), NAE 18:1 (326, 62, 12, positive), NAE 18:2 (324, 62, 12, positive), 2-AG (379, 287, 8, positive), 2-AG-d5 (384, 287, 8, positive), AA (303, 259, 4, negative), AA-d8 (311, 267, 4, negative), NAT 20:4 (410, 80, 35, negative), NAT 22:1 (444, 80, 35, negative), NAT 24:1 (472, 80, 35, negative), NAT 24:0 (474, 80, 35, negative), NAT 26:0 (502, 80, 35, negative). The indicated lipids were quantified by measuring the area under the peak relative to an internal standard (AEA-d4 for AEA and NAE 18:2; PEA-d4 for PEA, NAE 18:1 and NAE 18:0; 2-AG-d5 for 2-AG; AA-d8 for AA and 20:4 NAT; PDA for all other NATs).

[2] = molecular target: T1, endogenous FAAH in Neuro2a lysates (Mus musculus, UniProt O08914); assay: FAAH activity by AEA hydrolysis in Neuro2a lysates; type: biochemical; conditions: for IC50: read-out: IC50 against endogenous FAAH in Neuro2a lysates; for inhibition of FAAH activity in Neuro2a lysates: up to 250 μM
T1 construct: endogenous in cells; host or cells: Neuro2a membrane fraction
T1 sequence (O08914 1-579): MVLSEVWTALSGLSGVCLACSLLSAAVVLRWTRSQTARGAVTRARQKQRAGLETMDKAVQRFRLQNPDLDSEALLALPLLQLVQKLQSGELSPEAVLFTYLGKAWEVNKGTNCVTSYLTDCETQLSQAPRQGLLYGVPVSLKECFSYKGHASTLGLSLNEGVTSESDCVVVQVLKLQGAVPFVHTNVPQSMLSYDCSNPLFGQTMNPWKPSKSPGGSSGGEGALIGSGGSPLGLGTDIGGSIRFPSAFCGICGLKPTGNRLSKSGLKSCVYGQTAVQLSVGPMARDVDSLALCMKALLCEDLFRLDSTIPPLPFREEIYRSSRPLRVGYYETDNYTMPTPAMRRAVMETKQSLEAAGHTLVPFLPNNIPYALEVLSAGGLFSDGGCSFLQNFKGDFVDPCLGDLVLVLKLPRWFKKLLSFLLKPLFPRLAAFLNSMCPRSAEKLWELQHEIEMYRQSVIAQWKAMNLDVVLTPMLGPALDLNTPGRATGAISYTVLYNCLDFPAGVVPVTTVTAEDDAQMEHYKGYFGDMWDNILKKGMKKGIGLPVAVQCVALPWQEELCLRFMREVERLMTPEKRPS
Protocol: FAAH activity was measured by AEA hydrolysis: The membrane fraction of Neuro2a lysates (200 μL, 2.0 mg/mL) was incubated with DMSO or the test compound (1.0-250 μM) at 37° C. After 15 min, AEA-d8 (25 μM) was added and the samples were incubated for an additional 30 min and then quenched by the addition of two volumes of CHCl3:MeOH (2:1) containing pentadecanoic acid (PDA) (1.0 nmol) as an internal standard. After centrifuging (2,000×g, 5 min, 4° C.) to separate the organic and aqueous layers, the lower organic layer was transferred to a clean vial and analyzed by LC/MS as previously described. (Long et al., 2009) Pure humanized rat FAAH (Mileni et al., 2008) (5.0 ng/μL) was assayed in the same manner. Product levels were quantified by determining peak areas in relation to PDA.

CN1CCN(C(=O)c2c(-c3ccccc3)c3cc([N+](=O)[O-])ccc3n2C)CC1 [KML110, (1-Methyl-5-nitro-3-phenyl-1H-indol-2-yl)(4-methylpiperazin-1-yl)methanone]
NAEs when co-treated with PF-7845 (1 μM) [1]: do not produce elevations
AA levels [1]: do not affect
2-AG levels [1]: modest increase
cellular concentrations of NAEs and NATs [1]: elevated
IC50 [2]: > 100 µM
inhibition of FAAH activity in Neuro2a lysates [2]: minimal inhibition

CN1CCN(C(=O)c2[nH]c3ccc([N+](=O)[O-])cc3c2-c2ccccc2)CC1 [MJN228, (4-Methylpiperazin-1-yl)(5-nitro-3-phenyl-1H-indol-2-yl)methanone]
NAEs when co-treated with PF-7845 (1 μM) [1]: do not produce elevations
AA levels [1]: do not affect
2-AG levels [1]: modest increase
cellular concentrations of NAEs and NATs [1]: elevated
IC50 [2]: > 100 µM
inhibition of FAAH activity in Neuro2a lysates [2]: minimal inhibition
